Structures can show the parent of a compound that is named as a salt.
Test system: trigger point
Test: Efficacy and dosage study for intramuscular injection of phenoxybenzamine hydrochloride: subject-reported percent improvement from baseline
Assay type: in vivo, human
Experimental: A total of 326 male and female subjects, approximately 15 to 85 years old with pain of 4-72 month duration were treated with various doses of phenoxybenzamine. If a potential subject had pain that was clearly muscular and clearly not due to arthritis, nerve root compression or other extramuscular cause, the subject was considered a candidate for phenoxybenzamine hydrochloride injection. Trigger points were identified by palpation. A monopolar EMG needle was then inserted into the trigger point. Another monopolar EMG needle was inserted into a nearby nontender fibers of the same muscle. […] The treatment was repeated in up to 10-12 trigger points per treatment session. Subjects could return for up to 6 treatment sessions, depending on the extent of their pain. The initial treatment was with a dose of 25 mg of phenoxybenzamine hydrochloride in an injection volume of 2 ml. […] For 318 subjects, data were available for analysis for the doses of phenoxybenzamine hydrochloride used, efficacy and incidence of serious adverse events.
Subjects were asked to quantify, in terms of percent improvement from baseline, how they felt after treatment.

CC(COc1ccccc1)N(CCCl)Cc1ccccc1 (stereo not shown) [Phenoxybenzamine Hydrochloride, phenoxybenzamine hydrochloride]
Mean % improvement (3 mg dose, Two month, 178 subjects (Interim data)): 54.9% | % of Subjects with Greater than 25% Improvement (10 mg dose, Four month, 84 subjects): 63% | % of Subjects with Greater than 25% Improvement (10 mg dose, One month, 84 subjects): 52% | % of Subjects with Greater than 25% Improvement (10 mg dose, Three month, 84 subjects): 66% | % of Subjects with Greater than 25% Improvement (10 mg dose, Two month, 84 subjects): 68% | % of Subjects with Greater than 25% Improvement (25 mg dose, Four month, 16 subjects): 53% | % of Subjects with Greater than 25% Improvement (25 mg dose, One month, 16 subjects): 57% | % of Subjects with Greater than 25% Improvement (25 mg dose, One week, 16 subjects): 40% | % of Subjects with Greater than 25% Improvement (25 mg dose, Two month, 16 subjects): 66% | % of Subjects with Greater than 25% Improvement (10-12.5 mg dose, Four month, 8 subjects): 100% | % of Subjects with Greater than 25% Improvement (10-12.5 mg dose, One month, 8 subjects): 50% | % of Subjects with Greater than 25% Improvement (10-12.5 mg dose, Two month, 8 subjects): 83% | subjects reported no improvement in pain (Example 1, after treatment): About 15%

— US20070249725A1, “Pharmaceutical formulations of sympathetic antagonist for the treatment of chronic muscle pain” (priority 2006, published 2007)
